Columns and labels:
head lice [1] = assay: In vitro immersion reflex test: louse placed in a drop of wet agent on a microscope slide; parameters: species or system Pediculus humanus capitis; details: water by itself
Source text: Driable pediculostatic agents useful in the methods and kits of the present invention are characterized by their ability to induce an immersion reflex in lice in their wet form and to keep the lice in the immersion reflex once dried. The following in vitro test can be conveniently used to determine whether any individual agent is a pediculostatic agent, and can further be used for routine screening of agents—such as those from natural products libraries and combinatorial chemical libraries—to identify those that can be used in the methods, compositions, and kits of the present invention:
1. Contact a louse with an agent suspected of being a pediculostatic agent; and
2. Observe whether the louse becomes immobile.
Observations can readily be performed using a standard inexpensive light microscope with 10× or 40× magnification. The length of time necessary to render the louse completely immobile, in minutes, is the Immersion Reflex Index of the agent tested.
Ten crawling lice were obtained from patients with head lice and each one placed on a separate microscope slide for observation under a microscope at 10× or 40× power. […] Within 6 seconds of application, they stopped all spontaneous movement. Usually within 30 seconds, and always within 60 seconds, they would not respond to contact by a probe and ceased previously visible gastrointestinal motility. […]

head lice [2] = assay: In vitro test of agent dried onto lice (driable pediculostatic agent test); parameters: species or system Pediculus humanus capitis; details: water by itself
Source text: Contact a louse with a pediculostatic agent for a period of time sufficient to immobilize the louse (i.e., for at least 1× the Immersion Reflex Index of the agent);
Dry the agent onto the louse, either by air-drying or by application of heat, and observe whether the louse remains immobilized.
The period of time necessary for a particular dried agent to kill the louse can be conveniently determined by rinsing the dried agent off lice as a function of time and observing whether the rinsed lice regain mobility upon drying off.
Six crawling lice were obtained from patients with head lice and each placed in a drop of […] ® Cleanser as described in EXAMPLE 1. After 2 min., the cleanser was dried onto the lice by air drying (4 lice) or gentle warm air from a hair dryer (2 lice).

O [water]
induction of the immersion reflex in lice (head lice [1]): triggers the immersion reflex
lice upon drying of the agent (head lice [2]): recover and regain mobility

— patent publication US6541455B2, “Methods and kits for removing, treating, or preventing lice with driable pediculostatic agents” (priority 1999, dated 2003)
